The record followed here is patent publication US7868037B2 (PTC Therapeutics, Inc., priority 2004, dated 2011).

Read-outs that look alike come from different tables or passages of the source.

The test system of one series is HCV replicon. Description: microbe, parasite or virus in culture. The class given is cell-based, hepatitis C virus. The settings on record: Hepatitis C virus.

The term IC50 denotes the concentration at which inhibition is half-maximal. As usually defined, the melting point is the temperature of the solid-liquid transition. Turning to `CCn1c(-c2ccc(N(CCOC(C)=O)S(C)(=O)=O)cc2)c(C#N)c2ccc(OC)cc21` [Compound 815, N-(2-acetoxyethyl)-N-[4-(3-cyano-1-ethyl-6-methoxy-1H-indol-2-yl)-phenyl]methanesulfonamide], the melting point was in the range of 153 to 154 °C. The IC50 in the series on HCV replicon (read-out: Replicon IC50 μM) was > 2 µM.

With `CCOc1ccc2c(C(=O)N(C)C)c(-c3ccc(N4C(=O)C(C)N(C)C4=O)cc3)n(CC)c2c1` (stereo not shown) [Compound 780, N,N-Dimethyl-2-[4-(3,4-dimethyl-2,5-dioxo-imidazolidin-1-yl)-phenyl]-6-ethoxy-1-ethyl-1H-indole-3-carboxamide], the melting point lay within 219 to 220 °C. In the series on HCV replicon (read-out: Replicon IC50 μM), the IC50 lay in the range of 0.5 to 2 µM.

The molecule `CCn1cc(-c2ncco2)c2ccc(C(=O)OC)cc21` [Compound 75, methyl 1-ethyl-3-oxazol-2-yl-1H-indole-6-carboxylate] had a melting point of 118 to 123 °C. In the series with HCV replicon (read-out: Replicon IC50 μM), the IC50 is > 2 µM.

Take `N#Cc1c(-n2cccc2)[nH]c2cc([N+](=O)[O-])ccc12` [Compound 7, 6-nitro-2-pyrrol-1-yl-1H-indole-3-carbonitrile]: the melting point is 304 to 305 °C. Besides, the IC50 in the series with HCV replicon (read-out: Replicon IC50 μM) was in the range of 0.5 to 2 µM.

Regarding `CCn1c(-c2ccc(NS(C)(=O)=O)cc2)c(C#N)c2ccc(O)cc21` [Compound 189, N-[4-(3-cyano-1-ethyl-6-hydroxy-1H-indol-2-yl)-phenyl]-methanesulfonamide], the melting point was in the range of 252 to 253 °C. Further, the IC50 with HCV replicon (read-out: Replicon IC50 μM) is > 2 µM.

`CCOc1ccc2c(C#N)c(-c3ccc(N4C(=O)CNC4=O)cc3)n(CC)c2c1` [Compound 779, 2-[4-(2,5-dioxo-imidazolidin-1-yl)-phenyl]-6-ethoxy-1-ethyl-1H-indole-3-carbonitrile] returned a melting point of 265 to 267 °C. Besides, the IC50 with HCV replicon (read-out: Replicon IC50 μM) was < 0.5 µM.

`CCOc1ccc(-c2c(C#N)c3ccc(NS(=O)(=O)CC)cc3n2CC)cc1` [Compound 835, Ethanesulfonic acid [3-cyano-2-(4-ethoxyphenyl)-1-ethyl-1H-indol-6-yl]-amide] had a melting point of 178 to 179 °C. Moreover, in the series with HCV replicon (read-out: Replicon IC50 μM), the IC50 is 0.5 to 2 µM.

Turning to `CCn1c(-c2ccc(Nc3nc(-c4ccccc4)nc4ccccc34)cc2)c(C#N)c2ccc(OC)cc21` [Compound 458, 1-ethyl-6-methoxy-2-[4-(2-phenylquinazolin-4-ylamino)-phenyl]-1H-indole-3-carbonitrile], the melting point was in the range of 272 to 273 °C. Also, the IC50 with HCV replicon (read-out: Replicon IC50) is > 2 µM.

`CCn1c(-c2ccc(N3CCNS3(=O)=O)cc2)c(C#N)c2ccc(OC)cc21` [Compound 725, 2-[4-(1,1-dioxo-1λ^6-[1,2,5]thiadiazolidin-2-yl)phenyl]-1-ethyl-6-methoxy-1H-indole-3-carbonitrile] came in with a melting point of 215 to 216 °C. For the same molecule, the IC50 in the series with HCV replicon (read-out: Replicon IC50 μM) is 0.5 to 2 µM.

On to `CCn1c(-c2ccc(OCCN=[N+]=[N-])cc2)c(C#N)c2ccc(OC)cc21` [Compound 266, 2-[4-(2-azidoethoxy)phenyl]-1-ethyl-6-methoxy-1H-indole-3-carbonitrile], for which the melting point fell in the range of 96 to 99 °C. Further, the IC50 in the series on HCV replicon (read-out: Replicon IC50 μM) lay in the range of 0.5 to 2 µM.

As to `CCn1cc(C#N)c2ccc(C(=O)Nc3ccccc3)cc21` [Compound 15, 3-cyano-1-ethyl-1H-indole-6-carboxylic acid phenylamide], the melting point is 225 to 226 °C. Moreover, in the series on HCV replicon (read-out: Replicon IC50 μM), the IC50 was > 2 µM.

`CCOc1ccc(-c2c(C#N)c3ccc(Br)cc3n2CC)cc1` [Compound 831, 6-Bromo-2-(4-ethoxyphenyl)-1-ethyl-1H-indole-3-carbonitrile] registered a melting point of 140 to 141 °C. For the same molecule, the IC50 in the series on HCV replicon (read-out: Replicon IC50 μM) is > 2 µM.

`CCn1cc(-c2ccno2)c2ccc(OC)cc21` [Compound 58, 1-ethyl-3-isoxazol-5-yl-6-methoxy-1H-indole] showed a melting point of 76 to 79 °C. For the same molecule, in the series with HCV replicon (read-out: Replicon IC50 μM), the IC50 is > 2 µM.

Molecule `CCn1c(C#Cc2ccc(N(C)S(=O)(=O)CC)cc2)c(C#N)c2ccc(OC)cc21` [Compound 157] returned a melting point of 149 to 153 °C. For the same molecule, the IC50 in the series on HCV replicon (read-out: Replicon IC50 μM) lay within 0.5 to 2 µM.

Consider `CCn1c(C#Cc2ccc(N3CCNC3=O)cc2)c(C#N)c2ccc(OC)cc21` [Compound 166, 1-ethyl-6-methoxy-2-[4-(2-oxo-imidazolidin-1-yl)-phenylethynyl]-1H-indole-3-carbonitrile], for which the melting point fell in the range of 236 to 240 °C. Further, the IC50 in the series with HCV replicon (read-out: Replicon IC50 μM) is < 0.5 µM.

For the molecule `CCn1c(-c2ccc(C(=O)N3CCOCC3)cc2)c(C#N)c2cc(OC)ccc21` [Compound 245, 1-ethyl-5-methoxy-2-[4-(morpholine-4-carbonyl)-phenyl]-1H-indole-3-carbonitrile], the melting point lay within 192 to 195 °C. Also, the IC50 with HCV replicon (read-out: Replicon IC50 μM) was > 2 µM.

`CCNC(=O)Nc1cccc(C#Cc2c(C#N)c3ccc(OC)cc3n2CC)c1` [Compound 220, 1-[3-(3-cyano-1-ethyl-6-methoxy-1H-indol-2-ylethynyl)phenyl]-3-ethyl urea]: the melting point fell in the range of 219 to 223 °C. Further, the IC50 in the series with HCV replicon (read-out: Replicon IC50 μM) lay within 0.5 to 2 µM.

`CCc1nnc(-c2cn(CC)c3cc(OC)ccc23)o1` [Compound 54, 1-ethyl-6-methoxy-3-(5-ethyl-[1,3,4]oxadiazol-2-yl)-1H-indole] yielded a melting point of 99 to 101 °C. The IC50 in the series with HCV replicon (read-out: Replicon IC50 μM) was > 2 µM.

In the case of `CCn1c(C#Cc2ccc(F)cc2)c(C#N)c2ccc(OC)cc21` [Compound 67, 1-ethyl-2-(4-fluorophenylethynyl)-6-methoxy-1H-indole-3-carbonitrile], the melting point was in the range of 132 to 136 °C. Moreover, the IC50 with HCV replicon (read-out: Replicon IC50 μM) lay within 0.5 to 2 µM.

`CCOc1ccc(-c2c(C#N)c3ccc(NC(=O)OC(C)(C)C)cc3n2CC)cc1` [Compound 832, [3-cyano-2-(4-ethoxy-phenyl)-1-ethyl-1H-indol-6-yl]-carbamic acid tert-butyl ester] had a melting point of 206 to 207 °C. For the same molecule, the IC50 in the series with HCV replicon (read-out: Replicon IC50 μM) was in the range of 0.5 to 2 µM.

For `CCn1cc(-c2ccn[nH]2)c2ccc(OC)cc21` [Compound 59, 1-ethyl-6-methoxy-3-(2H-pyrazol-3-yl)-1H-indole], the melting point lay within 81 to 85 °C. The IC50 in the series with HCV replicon (read-out: Replicon IC50 μM) is > 2 µM.

`CCOc1ccc2c(C#N)c(-c3ccc(NP(=O)(OCC)OCC)cc3)n(CC)c2c1` [Compound 772]: the melting point is 211 to 212 °C. The IC50 in the series with HCV replicon (read-out: Replicon IC50 μM) was < 0.5 µM.

With `CCn1cc(C#N)c2ccc(Oc3cnccn3)cc21` [Compound 13, 1-ethyl-6-(pyrazin-2-yloxy)-1H-indole-3-carbonitrile], the melting point is 161 to 164 °C. Besides, the IC50 in the series on HCV replicon (read-out: Replicon IC50 μM) was > 2 µM.

For `CCOc1ccc2c(C#N)cn(CC)c2c1` [Compound 9, 6-ethoxy-1-ethyl-1H-indole-3-carbonitrile], the melting point lay within 61 to 63 °C. In addition, the IC50 with HCV replicon (read-out: Replicon IC50 μM) was > 2 µM.

In the case of `CCn1c(C#Cc2ccc(NS(C)(=O)=O)cc2)c(C#N)c2ccc(OC)cc21` [Compound 130, N-[4-(3-cyano-1-ethyl-6-methoxy-1H-indol-2-ylethynyl)-phenyl]-methanesulfonamide], the melting point is 227 to 233 °C. The IC50 with HCV replicon (read-out: Replicon IC50 μM) is < 0.5 µM.

Take `CCOc1ccc(-c2c(C#N)c3ccc(N)cc3n2CC)cc1` [Compound 833, 6-amino-2-(4-ethoxyphenyl)-1-ethyl-1H-indole-3-carbonitrile]: the melting point is 183 to 185 °C. The IC50 in the series with HCV replicon (read-out: Replicon IC50 μM) was in the range of 0.5 to 2 µM.

`CCn1c(-c2ccc(OCCNS(C)(=O)=O)cc2)c(C#N)c2ccc(OC)cc21` [Compound 268, N-{2-[4-(3-cyano-1-ethyl-6-methoxy-1H-indol-2-yl)-phenoxy]-ethyl}methanesulfonamide]: the melting point lay in the range of 137 to 143 °C. Also, the IC50 in the series with HCV replicon (read-out: Replicon IC50 μM) was in the range of 0.5 to 2 µM.

In the case of `CCn1c(-c2ccc3c(c2)NC(=O)CO3)c(C#N)c2ccc(OC)cc21` [Compound 334, 1-ethyl-6-methoxy-2-(3-oxo-3,4-dihydro-2H-benzo[1,4]oxazin-6-yl)-1H-indole-3-carbonitrile], the melting point was in the range of 242 to 246 °C. Further, the IC50 in the series with HCV replicon (read-out: Replicon IC50 μM) was in the range of 0.5 to 2 µM.

With `CCOC(=O)Nc1ccc(-c2c(C#N)c3ccc(OC)cc3n2CC)cc1` [Compound 121, [4-(3-cyano-1-ethyl-6-methoxy-1H-indol-2-yl)-phenyl]-carbamic acid ethyl ester], the melting point was 167 to 169 °C. Also, in the series on HCV replicon (read-out: Replicon IC50 μM), the IC50 lay in the range of 0.5 to 2 µM.

For the molecule `CCn1c(-c2ccc(N3CCCS3(=O)=O)cc2)c(C#N)c2ccc(OC)cc21` [Compound 84, 2-[4-(1,1-dioxo-1λ^6-isothiazolidin-2-yl)phenyl]-1-ethyl-6-methoxy-1H-indole-3-carbonitrile], the melting point lay in the range of 232 to 237 °C. Also, in the series with HCV replicon (read-out: Replicon IC50 μM), the IC50 was < 0.5 µM.

For the molecule `CCOc1ccc2c(C(=O)N(C)C)c(-c3ccc(N4C(=O)CN(C)C4=O)cc3)n(CC)c2c1` [Compound 781, N,N-Dimethyl-6-ethoxy-1-ethyl-2-[4-(3-methyl-2,5-dioxo-imidazolidin-1-yl)-phenyl]-1H-indole-3-carboxamide], the melting point is 207 to 208 °C. In the series with HCV replicon (read-out: Replicon IC50 μM), the 50% inhibitory concentration (IC50) is < 0.5 µM.

With `CCn1c(-c2ccc(NS(C)(=O)=O)cc2)c(C#N)c2ccc(OC)cc21` [Compound 129, N-[4-(3-Cyano-1-ethyl-6-methoxy-1H-indol-2-yl)-phenyl]-methanesulfonamide], the melting point lay in the range of 188 to 190 °C. In the series with HCV replicon (read-out: Replicon IC50 μM), the IC50 was in the range of 0.5 to 2 µM.

In the case of `CCNC(=O)NCCOc1ccc(-c2c(C#N)c3ccc(OC)cc3n2CC)cc1` [Compound 279, 1-{2-[4-(3-cyano-1-ethyl-6-methoxy-1H-indol-2-yl)-phenoxy]ethyl}-3-ethyl-urea], the melting point was in the range of 197 to 202 °C. Further, the IC50 in the series on HCV replicon (read-out: Replicon IC50 μM) is > 2 µM.

Turning to `CCn1c(C#Cc2ccc(NC=O)cc2)c(C#N)c2ccc(OC)cc21` [Compound 241, N-[4-(3-cyano-1-ethyl-6-methoxy-1H-indol-2-ylethynyl)-phenyl]-formamide], the melting point is 184 to 188 °C. Also, the IC50 in the series with HCV replicon (read-out: Replicon IC50 μM) is > 2 µM.

For the molecule `CCc1nc(-c2cn(CC)c3cc(OC)ccc23)no1` [Compound 28, 1-ethyl-3-(5-ethyl-[1,2,4]oxadiazol-3-yl)-6-methoxy-1H-indole], the melting point is 68 to 70 °C. For the same molecule, the IC50 in the series with HCV replicon (read-out: Replicon IC50 μM) lay in the range of 0.5 to 2 µM.
